In ChEMBL document CHEMBL3864146, “5-Alkyloxytryptamines are membrane-targeting, broad-spectrum antibiotics” (Bioorg Med Chem Lett, 2016):
The source made the active and inactive calls. No cut-off for these calls is given here.

Legend:
[1] = test system: Escherichia coli; test: Antibacterial activity against Escherichia coli BW25113 after 16 to 18 hrs by micro-dilution method; assay type: functional
[2] = test system: Escherichia coli; test: Antibacterial activity against tolC-deficient Escherichia coli BW25113 after 16 to 18 hrs by micro-dilution method; assay type: functional
[3] = test system: Bacillus subtilis; test: Antibacterial activity against Bacillus subtilis 168 after 16 to 18 hrs by micro-dilution method; assay type: functional; conditions: subsp. subtilis str. 168
[4] = test system: Pseudomonas aeruginosa; test: Antibacterial activity against Pseudomonas aeruginosa after 16 to 18 hrs by micro-dilution method; assay type: functional
[5] = test system: Salmonella typhimurium; test: Antibacterial activity against Salmonella typhimurium after 16 to 18 hrs by micro-dilution method; assay type: functional, Salmonella enterica subsp. enterica serovar Typhimurium; conditions: Salmonella enterica
[6] = test system: Vibrio cholerae; test: Antibacterial activity against Vibrio cholerae after 16 to 18 hrs by micro-dilution method; assay type: functional
[7] = test system: Shigella boydii; test: Antibacterial activity against Shigella boydii after 16 to 18 hrs by micro-dilution method; assay type: functional
[8] = test system: Klebsiella pneumoniae; test: Antibacterial activity against Klebsiella pneumoniae after 16 to 18 hrs by micro-dilution method; assay type: functional
[9] = test system: Klebsiella aerogenes; test: Antibacterial activity against Enterobacter aerogenes after 16 to 18 hrs by micro-dilution method; assay type: functional
[10] = test system: Acinetobacter baumannii; test: Antibacterial activity against Acinetobacter baumannii after 16 to 18 hrs by micro-dilution method; assay type: functional
[11] = test system: Edwardsiella tarda; test: Antibacterial activity against Edwardsiella tarda after 16 to 18 hrs by micro-dilution method; assay type: functional
[12] = test system: Morganella morganii; test: Antibacterial activity against Morganella morganii after 16 to 18 hrs by micro-dilution method; assay type: functional
[13] = test system: Staphylococcus aureus; test: Antibacterial activity against Staphylococcus aureus after 16 to 18 hrs by micro-dilution method; assay type: functional
[14] = test system: Escherichia coli; test: Induction of membrane permeabilization in Escherichia coli BW25113 at MIC after 15 mins by propidium iodide staining-based fluorescence microplate reader method relative to 50% ethanol; assay type: functional
[15] = test system: Streptococcus pyogenes; test: Antibacterial activity against Streptococcus pyogenes after 16 to 18 hrs; assay type: functional
[16] = test system: Escherichia coli; test: Bactericidal activity against Escherichia coli BW25113 after 22 hrs by micro-dilution method; assay type: functional; conditions: BW25113, 22 h
[17] = test system: Escherichia coli; test: Bactericidal activity against tolC-deficient Escherichia coli BW25113 after 22 hrs by micro-dilution method; assay type: functional; conditions: BW25113, 22 h
[18] = test system: Bacillus subtilis; test: Bactericidal activity against Bacillus subtilis 168 after 22 hrs by micro-dilution method; assay type: functional; conditions: subsp. subtilis str. 168, 22 h
[19] = test system: Pseudomonas aeruginosa; test: Bactericidal activity against Pseudomonas aeruginosa after 22 hrs by micro-dilution method; assay type: functional
[20] = test system: Salmonella typhimurium; test: Bactericidal activity against Salmonella typhimurium after 22 hrs by micro-dilution method; assay type: functional, Salmonella enterica subsp. enterica serovar Typhimurium; conditions: Salmonella enterica
[21] = test system: Vibrio cholerae; test: Bactericidal activity against Vibrio cholerae after 22 hrs by micro-dilution method; assay type: functional
[22] = test system: Shigella boydii; test: Bactericidal activity against Shigella boydii after 22 hrs by micro-dilution method; assay type: functional
[23] = test system: Klebsiella pneumoniae; test: Bactericidal activity against Klebsiella pneumoniae after 22 hrs by micro-dilution method; assay type: functional
[24] = test system: Klebsiella aerogenes; test: Bactericidal activity against Enterobacter aerogenes after 22 hrs by micro-dilution method; assay type: functional
[25] = test system: Acinetobacter baumannii; test: Bactericidal activity against Acinetobacter baumannii after 22 hrs by micro-dilution method; assay type: functional
[26] = test system: Edwardsiella tarda; test: Bactericidal activity against Edwardsiella tarda after 22 hrs by micro-dilution method; assay type: functional
[27] = test system: Morganella morganii; test: Bactericidal activity against Morganella morganii after 22 hrs by micro-dilution method; assay type: functional
[28] = test system: Staphylococcus aureus; test: Bactericidal activity against Staphylococcus aureus after 22 hrs by micro-dilution method; assay type: functional
[29] = test system: Streptococcus pyogenes; test: Bactericidal activity against Streptococcus pyogenes after 22 hrs; assay type: functional
[30] = test system: Escherichia coli; test: Ratio of MBC to MIC for Escherichia coli BW25113 after 16 to 18 hrs by micro-dilution method; assay type: functional
[31] = test system: Escherichia coli; test: Ratio of MBC to MIC for tolC-deficient Escherichia coli BW25113; assay type: functional
[32] = test system: Bacillus subtilis; test: Ratio of MBC to MIC for Bacillus subtilis 168; assay type: functional, subsp. subtilis str. 168
[33] = test system: Pseudomonas aeruginosa; test: Ratio of MBC to MIC for Pseudomonas aeruginosa; assay type: functional
[34] = test system: Salmonella typhimurium; test: Ratio of MBC to MIC for Salmonella typhimurium; assay type: functional, Salmonella enterica subsp. enterica serovar Typhimurium
[35] = test system: Vibrio cholerae; test: Ratio of MBC to MIC for Vibrio cholerae; assay type: functional
[36] = test system: Shigella boydii; test: Ratio of MBC to MIC for Shigella boydii; assay type: functional
[37] = test system: Klebsiella pneumoniae; test: Ratio of MBC to MIC for Klebsiella pneumoniae; assay type: functional
[38] = test system: Klebsiella aerogenes; test: Ratio of MBC to MIC for Enterobacter aerogenes; assay type: functional
[39] = test system: Acinetobacter baumannii; test: Ratio of MBC to MIC for Acinetobacter baumannii; assay type: functional
[40] = test system: Edwardsiella tarda; test: Ratio of MBC to MIC for Edwardsiella tarda; assay type: functional
[41] = test system: Morganella morganii; test: Ratio of MBC to MIC for Morganella morganii; assay type: functional
[42] = test system: Staphylococcus aureus; test: Ratio of MBC to MIC for Staphylococcus aureus; assay type: functional
[43] = test system: Streptococcus pyogenes; test: Ratio of MBC to MIC for Streptococcus pyogenes; assay type: functional
[44] = test system: Escherichia coli; test: Induction of membrane permeabilization in Escherichia coli BW25113 at MIC to 2 times MIC after 5 mins by propidium iodide staining-based flow cytometric method; assay type: functional
[45] = test system: Escherichia coli; test: Antibacterial activity against Escherichia coli BW25113 by multiple copy suppression assay; assay type: functional
[46] = test system: Escherichia coli; test: Antibacterial activity against Escherichia coli 5-NOT mutant 8 harboring ydeA gene mutation by multiple copy suppression assay; assay type: functional
[47] = test system: Escherichia coli; test: Antibacterial activity against Escherichia coli 5-NOT mutant 8 harboring pykA gene mutation by multiple copy suppression assay; assay type: functional
[48] = test system: Escherichia coli; test: Antibacterial activity against Escherichia coli 5-NOT mutant 8 harboring otsA gene mutation by multiple copy suppression assay; assay type: functional
[49] = test system: Escherichia coli; test: Antibacterial activity against Escherichia coli 5-NOT mutant 15-1 harboring ydeA gene mutation by multiple copy suppression assay; assay type: functional
[50] = test system: Escherichia coli; test: Antibacterial activity against Escherichia coli 5-NOT mutant 15-1 harboring thrS gene mutation by multiple copy suppression assay; assay type: functional
[51] = test system: Escherichia coli; test: Antibacterial activity against Escherichia coli 5-NOT mutant 15-1 harboring pykA gene mutation by multiple copy suppression assay; assay type: functional
[52] = test system: Escherichia coli; test: Adjuvant activity assessed as potentiation of chloramphenicol-induced antibacterial activity against Escherichia coli BW25113 at 0.5 times MIC after 16 to 18 hrs by checkerboard assay (reference value: 8 ng/ml); assay type: functional
[53] = test system: Escherichia coli; test: Adjuvant activity assessed as potentiation of chloramphenicol-induced antibacterial activity against Escherichia coli BW25113 at 0.25 times MIC after 16 to 18 hrs by checkerboard assay (reference value: 8 ng/ml); assay type: functional
[54] = test system: Escherichia coli; test: Adjuvant activity assessed as potentiation of tetracycline-induced antibacterial activity against Escherichia coli BW25113 at 0.5 times MIC after 16 to 18 hrs by checkerboard assay (reference value: 2 ng/ml); assay type: functional
[55] = test system: Escherichia coli; test: Adjuvant activity assessed as potentiation of tetracycline-induced antibacterial activity against Escherichia coli BW25113 at 0.25 times MIC after 16 to 18 hrs by checkerboard assay (reference value: 2 ng/ml); assay type: functional
[56] = test system: Escherichia coli; test: Adjuvant activity assessed as potentiation of ciprofloxacin-induced antibacterial activity against Escherichia coli BW25113 at 0.5 times MIC after 16 to 18 hrs by checkerboard assay (reference value: 13 ng/ml); assay type: functional
[57] = test system: Escherichia coli; test: Adjuvant activity assessed as potentiation of ciprofloxacin-induced antibacterial activity against Escherichia coli BW25113 at 0.25 times MIC after 16 to 18 hrs by checkerboard assay (reference value: 13 ng/ml); assay type: functional
[58] = test system: Escherichia coli; test: Adjuvant activity assessed as potentiation of rifampicin-induced antibacterial activity against Escherichia coli BW25113 at 0.5 times MIC after 16 to 18 hrs by checkerboard assay (reference value: 8 ng/ml); assay type: functional
[59] = test system: Escherichia coli; test: Adjuvant activity assessed as potentiation of rifampicin-induced antibacterial activity against Escherichia coli BW25113 at 0.25 times MIC after 16 to 18 hrs by checkerboard assay (reference value: 8 ng/ml); assay type: functional
[60] = organism: Homo sapiens; test: Selectivity ratio of Ki for 5-HT1A receptor (unknown origin) to Ki for human 5-HT1D receptor

CCCCCCCCCCCCCCOc1ccc2[nH]cc(CCN)c2c1.Cl
MIC [1]: > 119 µg/mL
MIC [2]: > 119 µg/mL
MIC [3]: 15 µg/mL
MIC [4]: > 119 µg/mL
MIC [5]: > 119 µg/mL
MIC [6]: > 119 µg/mL
MIC [7]: > 119 µg/mL
MIC [8]: > 119 µg/mL
MIC [9]: > 119 µg/mL
MIC [10]: > 119 µg/mL
MIC [11]: > 119 µg/mL
MIC [12]: > 119 µg/mL
MIC [13]: 3.4 to 30 µg/mL
Activity [14]: 11%

NCCc1c[nH]c2ccc(O)cc12 [SEROTONIN]
MIC [1]: > 56.4 µg/mL
MIC [2]: > 56.4 µg/mL
MIC [3]: > 56.4 µg/mL
MIC [10]: > 56.4 µg/mL
MIC [13]: > 56.4 µg/mL

CCCCCCCCCOc1ccc2[nH]cc(CCN)c2c1.Cl
MIC [1]: 6 µg/mL
MIC [2]: 1.5 µg/mL
MIC [3]: 0.76 µg/mL
MIC [4]: 24 to 96 µg/mL
MIC [5]: 6 to 24 µg/mL
MIC [6]: 6 to 24 µg/mL
MIC [7]: 6 µg/mL
MIC [8]: 6 µg/mL
MIC [9]: 6 to 24 µg/mL
MIC [10]: 6 µg/mL
MIC [11]: 6 to 12 µg/mL
MIC [12]: 12 to 24 µg/mL
MIC [13]: 6 µg/mL
MIC [15]: 24 µg/mL
MBC [16]: 12 µg/mL
MBC [17]: 6 µg/mL
MBC [18]: 0.76 µg/mL
MBC [19]: 96 µg/mL
MBC [20]: 24 µg/mL
MBC [21]: 24 µg/mL
MBC [22]: 6 µg/mL
MBC [23]: 6 µg/mL
MBC [24]: > 24 µg/mL
MBC [25]: 6 µg/mL
MBC [26]: 12 µg/mL
MBC [27]: 24 µg/mL
MBC [28]: 6 µg/mL
MBC [29]: 24 µg/mL
Ratio [30]: 2
Ratio [31]: 4
Ratio [32]: 1
Ratio [33]: 4
Ratio [34]: 4
Ratio [35]: 4
Ratio [36]: 1
Ratio [37]: 1
Ratio [38]: >4
Ratio [39]: 1
Ratio [40]: 2
Ratio [41]: 2
Ratio [42]: 2
Ratio [43]: 1
Activity [44]: Active
Activity [14]: 100%
MIC [45]: 80 µM
MIC [46]: 80 µM
MIC [47]: 80 µM
MIC [48]: 80 µM
MIC [49]: 80 µM
MIC [50]: 80 µM
MIC [51]: 80 µM
MIC [52]: 0.008 µg/mL
MIC [53]: 0.008 µg/mL
MIC [54]: 0.002 µg/mL
MIC [55]: 0.002 µg/mL
MIC [56]: 0.013 µg/mL
MIC [57]: 0.013 µg/mL
MIC [58]: 0.008 µg/mL
MIC [59]: 0.008 µg/mL
Ratio Ki [60]: 300

CC(C)CCCC(C)CCOc1ccc2[nH]cc(CCN)c2c1.Cl (configuration not stated)
MIC [1]: 13 µg/mL
MIC [2]: 3.2 µg/mL
MIC [3]: 1.6 µg/mL
MIC [4]: 25 µg/mL
MIC [5]: 6.3 µg/mL
MIC [6]: 6.3 µg/mL
MIC [7]: 6.3 µg/mL
MIC [8]: 13 µg/mL
MIC [9]: 13 µg/mL
MIC [10]: 13 µg/mL
MIC [11]: 25 µg/mL
MIC [12]: > 101 µg/mL
MIC [13]: 6.3 µg/mL
